One series has as its system HIV-1. Nature of the series: microbe, parasite or virus in culture. An excerpt: (§1) FIGS. 1-4 are plots of the log10 of the meso-2,3 dimercaptosuccinic acid concentrations (as moles/L or Molar) against the measured test values expressed as a percentage of the uninfected, untreated control values.
The procedure used to test dimercaptosuccinic acid's activity against Human Immunodeficiency Virus (HIV) is the assay developed by Owen S. Weislow et al. described in "Journal of the National Cancer Institute," Vol. 81, No. 8, April 19, 1989 which is hereby incorporated herein by reference. The assay basically involves the killing of T4 lymphocytes by HIV. Small amounts of HIV are added to cells, and a complete cycle of virus reproduction is necessary to obtain the required cell killing. Agents that interact with virions, cells, or virus gene-products to interfere with viral activities will protect cells from cytolysis. All tests are compared with at least one positive (e.g., AZT-treated) control done at the same time under identical conditions.
(§2) 1. Dimercaptosuccinic acid was dissolved in dimethyl sulfoxide (unless otherwise instructed) then diluted 1:100 in cell culture medium before preparing serial half-log10 dilutions. T4 lymphocytes (CEM cell line) were added and after a brief interval HIV-1 is added, resulting in a 1:200 final dilution of the compound. Uninfected cells with the compound serve as a toxicity control, and infected and uninfected cells without the compound serve as basic controls.
(§3) 2. The cultures were incubated at 37° in a 5% carbon dioxide atmosphere for 6 days.
(§4) 3. The tetrazolium salt, XTT, was added to all wells, and cultures were incubated to allow formazan color development by viable cells.
(§5) 4. Individual wells were analyzed spectrophotometrically to quantitate formazan production, and in addition were viewed microscopically for detection of viable cells and confirmation of protective activity.
(§6) 5. Drug-treated virus-infected cells were compared with drug-treated noninfected cells and with other appropriate controls (untreated infected and untreated noninfected cells, drug-containing wells without cells, etc.) on the same plate.
6. The data was reviewed in comparison with four other tests done at the same time and a determination about activity was made.

For series [1], the system named is T4 lymphocytes (CEM cell line). As to the kind of experiment: Toxicity control: growth inhibition of uninfected T4 lymphocytes (CEM cell line), XTT. The note with it: for Uninfected response: uninfected CEM cells, vs uninfected untreated control, 6 days, 8640 min. The protocol: as §1, §2, §3, §4, §5, §6
On the technique in general: Tetrazolium dyes change colour on reduction, which living cells bring about.

For series [2] the following is noted: lead, mercury and arsenic; numerous animal studies; cited from earlier work.
The conditions of series [3]: calcium, magnesium, manganese, iron and zinc; cited from earlier work.

Structures are written as SMILES. Where “and” joins values, the source holds several entries; their conditions need not be identical. Equal values may be shown once.

Consider `O=C(O)[C@@H](S)[C@@H](S)C(=O)O` [dimercaptosuccinic acid, meso-2,3 dimercaptosuccinic acid], for which, in the series with HIV-1 (1.40 × 10^-4 Molar, HIV-1 infected CEM cells, vs uninfected untreated control, 6 days, 140 µM, 8640 min, 140 µM), the Infected response was 84.32% of Control and 103.60% of Control and 95.01% of Control. Moreover, the “Conclusion (determination of activity)” value with HIV-1 (HIV-1, CEM cells, 6 days, Tables I-IV) was “CONFIRMED ACTIVE”. The viability at 140 µM with HIV-1 (Human immunodeficiency virus 1, CCRF-CEM, in Homo sapiens, 144 h, read-out: Infected response, 1.40 × 10^-4 Molar, HIV-1 infected CEM cells, vs uninfected untreated control, 6 days) was 94.3%. The “Overall conclusion on antiretroviral effectiveness” value in the series with HIV-1 (drawn from data of Tables I-IV) is on record as “effective as a treatment for retroviruses in warm blooded animals”. Moreover, the Uninfected response in series [1] (1.40 × 10^-4 Molar, 140 µM, 140 µM) is 80.02% of Control and 81.43% of Control and 107.87% of Control and 105.07% of Control; in series [1] (1.40 × 10^-5 Molar, 14 µM, 14 µM), 74.62% of Control and 87.58% of Control and 118.28% of Control and 102.83% of Control; in series [1] (4.30 × 10^-4 Molar, 430 µM, 430 µM), 106.57% of Control and 107.46% of Control and 124.09% of Control and 128.49% of Control; in series [1] (4.40 × 10^-5 Molar, 44 µM, 44 µM), 84.59% of Control and 85.17% of Control and 125.62% of Control and 102.99% of Control. Further, in series [1] (Homo sapiens, CCRF-CEM, 144 h, read-out: 50% inhibitory concentration (IC50)), the IC50 is greater than 1.4 mM. For the same molecule, the “Heavy metal chelating effect” value in series [2] is “effective heavy metal chelating agent for lead, mercury and arsenic”. The “Effect on excretion of essential minerals” value in series [3] was “not to increase the excretion of essential minerals”.
